# Source: patent US8163779B2, “Glucokinase activators” (Takeda San Diego, Inc., priority 2006, dated 2012)
# Structures can show the parent of a compound that is named as a salt.
# Biological target: T1, glucokinase (GK) (Homo sapiens, UniProt P35557)
# T1 construct: I.D. No. 1 corresponds to residues 12-465 of glucokinase; made in house; host or cells: E. coli DH10b-T1r
# T1 sequence (P35557 with tags, fused parts or gaps isoform P35557-2): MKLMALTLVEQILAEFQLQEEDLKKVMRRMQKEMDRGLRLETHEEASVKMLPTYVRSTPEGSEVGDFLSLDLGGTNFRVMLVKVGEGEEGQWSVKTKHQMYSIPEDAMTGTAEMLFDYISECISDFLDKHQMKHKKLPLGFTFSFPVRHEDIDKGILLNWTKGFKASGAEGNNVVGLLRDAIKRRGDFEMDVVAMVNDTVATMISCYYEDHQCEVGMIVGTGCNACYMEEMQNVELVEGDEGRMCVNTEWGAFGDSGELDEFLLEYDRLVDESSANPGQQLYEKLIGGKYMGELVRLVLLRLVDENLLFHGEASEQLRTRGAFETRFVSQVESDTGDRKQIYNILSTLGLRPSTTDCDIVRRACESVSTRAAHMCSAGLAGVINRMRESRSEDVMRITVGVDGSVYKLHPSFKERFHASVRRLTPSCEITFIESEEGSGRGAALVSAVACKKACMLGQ
# Assay: enzymatic glucokinase activity assay (ATP consumption, KinaseGlo luminescence)
# Assay type: biochemical
# Details: recombinant GK residues 12-465; 5 μM ATP, 5 mM Glucose; Kact = concentration that displays 50% of the maximal increase in GK activity; read-out: pKact
# Summary of the method: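 Activation was scored as ATP consumption, quantified by KinaseGlo luciferase luminescence after a 60 min room-temperature reaction. Reactions contained E. coli-expressed, purified GK, 5 μM ATP, 5 mM glucose, 10 mM MgCl2, 0.01% Brij35 and 2% DMSO at pH 7.2; pKact was fitted non-linearly.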
row,SMILES,EC50
1,"Cc1cc(S(=O)(=O)C2CC2)cc(=O)n1[C@H](CC1CCOCC1)C(=O)Nc1ncc(Cl)s1 [Example 173, (R)-N-(5-chlorothiazol-2-yl)-2-(4-(cyclopropylsulfonyl)-6-methyl-2-oxopyridin-1(2H)-yl)-3-(tetrahydro-2H-pyran-4-yl)propanamide]",> 15.8 µM
2,"O=C(Nc1ncc(Cl)s1)[C@@H](CC1CCOCC1)n1ccc(S(=O)(=O)C2CCCC2)cc1=O [Example 31, (R)-N-(5-chlorothiazol-2-yl)-2-(4-(cyclopentylsulfonyl)-2-oxopyridin-1(2H)-yl)-3-(tetrahydro-2H-pyran-4-yl)propanamide]",> 15.8 µM
3,"CN1CCN(Cc2cnc(NC(=O)C(CC3CCOCC3)n3ccc(S(=O)(=O)C4CC4)cc3=O)s2)CC1 (centres unmarked) [Example 147, 2-(4-(cyclopropylsulfonyl)-2-oxopyridin-1(2H)-yl)-N-(5-((4-methylpiperazin-1-yl)methyl)thiazol-2-yl)-3-(tetrahydro-2H-pyran-4-yl)propanamide]",> 15.8 µM
4,"Cc1cc(-c2ncco2)cc(=O)n1C(CC1CCCCC1)C(=O)Nc1ncc(Cl)s1 (centres unmarked) [Example 143, N-(5-chlorothiazol-2-yl)-3-cyclohexyl-2-(6-methyl-4-(oxazol-2-yl)-2-oxopyridin-1(2H)-yl)propanamide]",1.58 to 15.8 µM
5,"COc1ccc2nc(NC(=O)[C@H](CC3CCCCC3)n3ccc(S(=O)(=O)C4CC4)cc3=O)sc2n1 [Example 76, (S)-3-cyclohexyl-2-(4-(cyclopropylsulfonyl)-2-oxopyridin-1(2H)-yl)-N-(5-methoxythiazolo[5,4-b]pyridin-2-yl)propanamide]",< 1.58 µM
6,"Cc1cc(S(=O)(=O)C2CCS(=O)(=O)CC2)cc(=O)n1C(CC1CCCCC1)C(=O)Nc1ncc(F)s1 (centres unmarked) [Example 161, N-(5-fluorothiazol-2-yl)-2-(4-(1,1-dioxotetrahydrothiopyran-4-ylsulfonyl)-6-methyl-2-oxopyridin-1(2H)-yl)-3-cyclohexyipropanamide]",1.58 to 15.8 µM
7,"O=C(Nc1ncc(Cl)s1)[C@@H](CC1CCOCC1)n1cc(Cl)c(S(=O)(=O)C2CC2)cc1=O [Example 195, (R)-2-(5-chloro-4-(cyclopropylsulfonyl)-2-oxopyridin-1(2H)-yl)-N-(5-chlorothiazol-2-yl)-3-(tetrahydro-2H-pyran-4-yl)propanamide]",> 15.8 µM
8,"Cc1cc(S(=O)(=O)Cc2ccco2)cc(=O)n1C(CC1CCCCC1)C(=O)Nc1nccs1 (centres unmarked) [Example 81, 3-cyclohexyl-2-(4-(furan-2-ylmethylsulfonyl)-6-methyl-2-oxopyridin-1(2H)-yl)-N-(thiazol-2-yl)propanamide]",< 1.58 µM
9,"COc1ccc(-c2cc(C)n([C@@H](CC3CCCCC3)C(=O)Nc3nccs3)c(=O)c2)cc1 [Example 96, (S)-3-cyclohexyl-2-(4-(4-methoxyphenyl)-6-methyl-2-oxopyridin-1(2H)-yl)-N-(thiazol-2-yl)propanamide]",> 15.8 µM
10,"CS(=O)(=O)c1ccn(C(CC2CCOCC2)C(=O)Nc2ncc(CCC(=O)O)s2)c(=O)c1 (centres unmarked) [Example 53, 3-(2-(2-(4-(methylsulfonyl)-2-oxopyridin-1(2H)-yl)-3-(tetrahydro-2H-pyran-4-yl)propanamido)thiazol-5-yl)propanoic acid]",> 15.8 µM
11,"Cc1cc(S(=O)(=O)C2CCOCC2)cc(=O)n1[C@H](CC1CCCC1)C(=O)Nc1ncc(Cl)s1 [Example 192, (R)-N-(5-chlorothiazol-2-yl)-3-cyclopentyl-2-(6-methyl-2-oxo-4-(tetrahydro-2H-pyran-4-ylsulfonyl)pyridin-1(2H)-yl)propanamide]",> 15.8 µM
12,"NC(=O)c1ccc(NC(=O)[C@@H](CC2CCOCC2)n2ccc(S(=O)(=O)C3CCCC3)cc2=O)nc1 [Example 47, (R)-6-(2-(4-(cyclopentylsulfonyl)-2-oxopyridin-1(2H)-yl)-3-(tetrahydro-2H-pyran-4-yl)propanamido)nicotinamide]",> 15.8 µM
13,"Cc1cc(-c2cc3ccccc3o2)cc(=O)n1[C@@H](CC1CCCCC1)C(=O)Nc1nccs1 [Example 104, (S)-2-(4-(benzofuran-2-yl)-6-methyl-2-oxopyridin-1(2H)-yl)-3-cyclohexyl-N-(thiazol-2-yl)propanamide]",> 15.8 µM
14,"Cc1cc(S(=O)(=O)c2cc(C)n(C(CC3CCCCC3)C(=O)Nc3ncc(Cl)s3)c(=O)c2)c(C)o1 (centres unmarked) [Example 83, N-(5-chlorothiazol-2-yl)-3-cyclohexyl-2-(4-(2,5-dimethylfuran-3-ylsulfonyl)-6-methyl-2-oxopyridin-1(2H)-yl)propanamide]",< 1.58 µM
15,"N#Cc1cnc(NC(=O)[C@@H](CC2CCOCC2)n2ccc(S(=O)(=O)C3CCCC3)cc2=O)s1 [Example 56, (R)-N-(5-cyanothiazol-2-yl)-2-(4-(cyclopentylsulfonyl)-2-oxopyridin-1(2H)-yl)-3-(tetrahydro-2H-pyran-4-yl)propanamide]",> 15.8 µM
16,"Cc1cc(S(=O)(=O)c2cccc(F)c2)cc(=O)n1[C@H](CC1CCOCC1)C(=O)Nc1ncc(F)s1 [Example 190, (R)-2-(4-(3-fluorophenylsulfonyl)-6-methyl-2-oxopyridin-1(2H)-yl)-N-(5-fluorothiazol-2-yl)-3-(tetrahydro-2H-pyran-4-yl)propanamide]",> 15.8 µM
17,"Cc1cc(S(=O)(=O)C2CCOCC2)cc(=O)n1C(CC1CCCC1)C(=O)Nc1ncc(F)s1 (centres unmarked) [Example 175, 3-cyclopentyl-N-(5-fluorothiazol-2-yl)-2-(6-methyl-2-oxo-4-(tetrahydro-2H-pyran-4-ylsulfonyl)pyridin-1(2H)-yl)propanamide]",1.58 to 15.8 µM
18,"Cc1cc(S(=O)(=O)C2CCCC2)cc(=O)n1[C@@H](CC1CCOCC1)C(=O)Nc1ncc(Cl)s1 [Example 38, (S)-N-(5-chlorothiazol-2-yl)-2-(4-(cyclopentylsulfonyl)-6-methyl-2-oxopyridin-1(2H)-yl)-3-(tetrahydro-2H-pyran-4-yl)propanamide]",< 1.58 µM
19,"COc1ccc2nc(NC(=O)[C@H](CC3CCOCC3)n3ccc(S(=O)(=O)C4CCCC4)cc3=O)sc2n1 [Example 59, (S)-2-(4-(cyclopentylsulfonyl)-2-oxopyridin-1(2H)-yl)-N-(5-methoxythiazolo[5,4-b]pyridin-2-yl)-3-(tetrahydro-2H-pyran-4-yl)propanamide]",< 1.58 µM
20,"Cc1cc(O)cc(=O)n1C(CC1CCCCC1)C(=O)Nc1nccs1 (centres unmarked) [Example 1, 3-cyclohexyl-2-(4-hydroxy-6-methyl-2-oxopyridin-1(2H)-yl)-N-(thiazol-2-yl)propanamide trifluoroacetic acid salt]",> 15.8 µM
21,"CNS(=O)(=O)c1ccc(-c2cc(C)n([C@@H](CC3CCCCC3)C(=O)Nc3nccs3)c(=O)c2)cc1 [Example 115, (S)-3-cyclohexyl-2-(6-methyl-4-(4-(N-methylsulfamoyl)phenyl)-2-oxopyridin-1(2H)-yl)-N-(thiazol-2-yl)propanamide]",> 15.8 µM
22,"Cc1ccc(S(=O)(=O)c2cc(C)n(C(CC(C)(C)C)C(=O)Nc3ncc(F)s3)c(=O)c2)cc1 (centres unmarked) [Example 43, N-(5-fluorothiazol-2-yl)-4,4-dimethyl-2-(6-methyl-2-oxo-4-tosylpyridin-1(2H)-yl)pentanamide]",1.58 to 15.8 µM
23,"Cc1cc(-c2ccccc2F)cc(=O)n1[C@@H](CC1CCCCC1)C(=O)Nc1nccs1 [Example 110, (S)-3-cyclohexyl-2-(4-(2-fluorophenyl)-6-methyl-2-oxopyridin-1(2H)-yl)-N-(thiazol-2-yl)propanamide]",> 15.8 µM
24,"O=C(Nc1nc2cccnc2s1)[C@@H](CC1CCOCC1)n1ccc(S(=O)(=O)C2CC2)cc1=O [Example 51, (R)-2-(4-(cyclopropylsulfonyl)-2-oxopyridin-1(2H)-yl)-3-(tetrahydro-2H-pyran-4-yl)-N-(thiazolo[5,4-b]pyridin-2-yl)propanamide]",> 15.8 µM
25,"Cn1ccc(NC(=O)C(CC2CCOCC2)n2ccc(S(=O)(=O)C3CC3)cc2=O)n1 (centres unmarked) [Example 66, 2-(4-(cyclopropylsulfonyl)-2-oxopyridin-1(2H)-yl)-N-(1-methyl-1H-pyrazol-3-yl)-3-(tetrahydro-2H-pyran-4-yl)propanamide]",> 15.8 µM
26,"Cc1cc(S(=O)(=O)C2CCCC2)cc(=O)n1[C@@H](CC1CCOCC1)C(=O)Nc1ccc(F)cn1 [Example 165, (S)-2-(4-(cyclopentylsulfonyl)-6-methyl-2-oxopyridin-1(2H)-yl)-N-(5-fluoropyridin-2-yl)-3-(tetrahydro-2H-pyran-4-yl)propanamide]",1.58 to 15.8 µM
27,"CC(=O)Nc1ccc(=O)n(C(CC2CCOCC2)C(=O)Nc2ncc(Cl)s2)c1 (centres unmarked) [Example 156, 2-(5-acetamido-2-oxopyridin-1(2H)-yl)-N-(5-chlorothiazol-2-yl)-3-(tetrahydro-2H-pyran-4-yl)propanamide]",> 15.8 µM
28,"CS(=O)(=O)c1ccn([C@H](CC2CCOCC2)C(=O)Nc2ncc(Cl)s2)c(=O)c1 [Example 22, (R)-N-(5-chlorothiazol-2-yl)-2-(4-(methylsulfonyl)-2-oxopyridin-1(2H)-yl)-3-(tetrahydro-2H-pyran-4-yl)propanamide]",> 15.8 µM
29,"O=C(Nc1ncc(F)s1)[C@H](CC1CCOCC1)n1ccc(S(=O)(=O)C2CCCC2)cc1=O [Example 34, (S)-2-(4-(cyclopentylsulfonyl)-2-oxopyridin-1(2H)-yl)-N-(5-fluorothiazol-2-yl)-3-(tetrahydro-2H-pyran-4-yl)propanamide]",< 1.58 µM
